Laboratory results published in patent US20180177792A1, “COMPOSITIONS AND METHODS FOR TREATING PATIENTS WITH RTK MUTANT CELLS” (IGNYTA, INC., priority 2015, published 2018).
Read-outs that look alike come from different tables or passages of the source. Each block holds one molecule with its values, some of them ahead of it.

Columns and labels:
[1] = tested on: parental KM12 cells (KM12-DMSO; KM12-TPM3/trkA_WT); experiment: growth inhibition (CellTiter-Glo, 3 days), parental KM12 cells cultured in DMSO
[2] = tested on: KM12-TPM3/trkA_G595R cells; experiment: growth inhibition screen, KM12 mutant cells with G595R; assay type: cell-based, human
Method: (§1) Each treatment condition was performed in duplicate.
(§2) In this experiment, each of the following cell lines: Ba/F3-tel/trkA, Ba/F3-tel/trkA-10nMA (G595R), KM12-DMSO, KM12-30nM101-B (G667C), KM12-100nM101-B (G667C), KM12-300nM101-B (G595R) was screened against a number of chemical compounds.

[3] = tested on: KM12-TPM3/trkA_G667C cells; experiment: growth inhibition screen, KM12 mutant cells with G667C; assay type: cell-based, human
Method: as §1, §2

[4] = target: T1, BaF3-tel/trkA-10 nMA(G595R) cells (Homo sapiens, UniProt P04629, G595R, cells depend on it); assay type: cell-based, murine; conditions: BaF3-tel/trkA_G595R
T1 construct: IC50; other: BaF3-tel/trkA-10 nMA(G595R); fused on or other part: P41212 (Transcription factor ETV6)
T1 sequence (P04629 whole entry G595R, the tested form may be a part): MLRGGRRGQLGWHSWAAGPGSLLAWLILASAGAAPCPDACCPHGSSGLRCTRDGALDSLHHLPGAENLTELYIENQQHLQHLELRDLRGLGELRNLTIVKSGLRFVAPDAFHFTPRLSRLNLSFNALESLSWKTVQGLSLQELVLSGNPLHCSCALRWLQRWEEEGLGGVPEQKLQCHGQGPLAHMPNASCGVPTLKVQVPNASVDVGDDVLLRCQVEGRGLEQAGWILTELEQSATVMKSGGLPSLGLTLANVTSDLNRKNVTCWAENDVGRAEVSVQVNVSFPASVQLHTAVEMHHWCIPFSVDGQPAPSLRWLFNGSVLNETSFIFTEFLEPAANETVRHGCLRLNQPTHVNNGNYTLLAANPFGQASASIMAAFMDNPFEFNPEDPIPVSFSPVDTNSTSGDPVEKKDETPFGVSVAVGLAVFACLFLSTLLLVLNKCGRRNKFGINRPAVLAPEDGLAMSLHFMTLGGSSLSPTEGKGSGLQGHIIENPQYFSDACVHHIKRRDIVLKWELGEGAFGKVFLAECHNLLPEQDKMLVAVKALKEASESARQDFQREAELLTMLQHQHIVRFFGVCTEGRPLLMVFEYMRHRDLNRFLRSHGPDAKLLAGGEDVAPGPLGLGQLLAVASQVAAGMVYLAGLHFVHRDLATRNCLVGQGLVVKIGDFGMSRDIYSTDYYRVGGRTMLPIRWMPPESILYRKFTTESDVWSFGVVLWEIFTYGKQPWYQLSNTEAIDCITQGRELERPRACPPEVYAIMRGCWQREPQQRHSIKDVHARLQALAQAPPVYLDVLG
Method: (§3) Input Ba/F3-Tel/TrkA cell line was an engineered cell line harboring a recombinant TrkA fusion gene ETV6-TrkA. […] Cell viability was evaluated by trypan blue and counted every two days (FIG. 9).
as §1, §2

BaF3-tel/trkA_WT cells = target: T2, BaF3-tel/trkA_WT cells (Homo sapiens, UniProt P04629); experiment: growth inhibition, parental Ba/F3-tel/trkA cells; assay type: cell-based, murine
T2 construct: Input Ba/F3-Tel/TrkA cell line was an engineered cell line harboring a recombinant TrkA fusion gene ETV6-TrkA; fused on or other part: P41212 (Transcription factor ETV6)
T2 sequence (P04629 whole entry, change not shown, the tested form may be a part): as the sequence (P04629 whole entry G595R, the tested form may be a part) above, with R595G counted along it
Method: as §3, §1, §2

BaF3-tel/trkC cells = target: T3, BaF3-tel/trkC cells (Homo sapiens, UniProt Q16288); experiment: growth inhibition, Ba/F3-tel/trkC cells; assay type: cell-based, murine
T3 construct: fused on or other part: P41212 (Transcription factor ETV6)
T3 sequence (Q16288 whole entry, change not shown, the tested form may be a part): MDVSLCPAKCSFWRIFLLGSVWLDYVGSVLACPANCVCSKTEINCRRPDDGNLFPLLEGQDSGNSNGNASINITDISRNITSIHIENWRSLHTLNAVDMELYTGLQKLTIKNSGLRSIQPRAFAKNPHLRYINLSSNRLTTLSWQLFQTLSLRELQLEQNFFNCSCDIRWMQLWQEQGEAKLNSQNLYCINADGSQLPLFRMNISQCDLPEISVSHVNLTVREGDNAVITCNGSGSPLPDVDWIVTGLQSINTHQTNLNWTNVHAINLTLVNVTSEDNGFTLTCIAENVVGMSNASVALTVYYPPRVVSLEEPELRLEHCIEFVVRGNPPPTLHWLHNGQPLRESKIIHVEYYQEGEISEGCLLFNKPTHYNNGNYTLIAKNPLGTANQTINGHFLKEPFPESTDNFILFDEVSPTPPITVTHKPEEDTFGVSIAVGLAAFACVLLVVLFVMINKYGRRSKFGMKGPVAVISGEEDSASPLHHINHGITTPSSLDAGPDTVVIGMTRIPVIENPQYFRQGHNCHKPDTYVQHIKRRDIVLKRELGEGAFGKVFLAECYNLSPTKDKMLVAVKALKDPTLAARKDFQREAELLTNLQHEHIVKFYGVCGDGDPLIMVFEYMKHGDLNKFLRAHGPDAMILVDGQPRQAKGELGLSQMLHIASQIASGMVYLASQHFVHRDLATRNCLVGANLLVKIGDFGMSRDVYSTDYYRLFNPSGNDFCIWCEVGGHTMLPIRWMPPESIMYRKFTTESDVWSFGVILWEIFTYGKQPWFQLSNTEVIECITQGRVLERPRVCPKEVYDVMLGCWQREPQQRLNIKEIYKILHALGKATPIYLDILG

[5] = tested on: mutant cells harboring the TrkA-G595C mutation or the TrkA-G667C mutation; experiment: screen for inhibition of proliferation of mutant KM12 and Ba/F3-tel/trkA cells; assay type: cell-based
Method: as §1, §2

KM12-100 nM-B cells = experiment: cells; conditions: Homo sapiens
Method: as §1

KM12-30 nM A cells = experiment: cells; conditions: for IC50: Homo sapiens
Method: as §1

KM12-3 nM A cells = experiment: cells; conditions: Homo sapiens
Method: as §1

KM12-100 nM A cells = experiment: cells; conditions: Homo sapiens
Method: as §1

KM12-1 nM A cells = experiment: cells; conditions: Homo sapiens
Method: as §1

KM12-10 nM A cells = experiment: cells; conditions: Homo sapiens
Method: as §1

[6] = tested on: KM12-100 nM-B (no drug) cells; experiment: cells; conditions: Homo sapiens
Method: as §1

KM12-30 nM-B cells = experiment: cells; conditions: Homo sapiens
Method: as §1

KM12-300 nM-B cells = experiment: cells; conditions: Homo sapiens
Method: as §1

BaF3-tel/trkB cells = target: T4, BaF3-tel/trkB cells (Homo sapiens, UniProt Q16620); experiment: growth inhibition, Ba/F3-tel/trkB cells; assay type: cell-based, murine; conditions: read-out: IC50, Table 9
T4 construct: fused on or other part: P41212 (Transcription factor ETV6)
T4 sequence (Q16620 whole entry, change not shown, the tested form may be a part): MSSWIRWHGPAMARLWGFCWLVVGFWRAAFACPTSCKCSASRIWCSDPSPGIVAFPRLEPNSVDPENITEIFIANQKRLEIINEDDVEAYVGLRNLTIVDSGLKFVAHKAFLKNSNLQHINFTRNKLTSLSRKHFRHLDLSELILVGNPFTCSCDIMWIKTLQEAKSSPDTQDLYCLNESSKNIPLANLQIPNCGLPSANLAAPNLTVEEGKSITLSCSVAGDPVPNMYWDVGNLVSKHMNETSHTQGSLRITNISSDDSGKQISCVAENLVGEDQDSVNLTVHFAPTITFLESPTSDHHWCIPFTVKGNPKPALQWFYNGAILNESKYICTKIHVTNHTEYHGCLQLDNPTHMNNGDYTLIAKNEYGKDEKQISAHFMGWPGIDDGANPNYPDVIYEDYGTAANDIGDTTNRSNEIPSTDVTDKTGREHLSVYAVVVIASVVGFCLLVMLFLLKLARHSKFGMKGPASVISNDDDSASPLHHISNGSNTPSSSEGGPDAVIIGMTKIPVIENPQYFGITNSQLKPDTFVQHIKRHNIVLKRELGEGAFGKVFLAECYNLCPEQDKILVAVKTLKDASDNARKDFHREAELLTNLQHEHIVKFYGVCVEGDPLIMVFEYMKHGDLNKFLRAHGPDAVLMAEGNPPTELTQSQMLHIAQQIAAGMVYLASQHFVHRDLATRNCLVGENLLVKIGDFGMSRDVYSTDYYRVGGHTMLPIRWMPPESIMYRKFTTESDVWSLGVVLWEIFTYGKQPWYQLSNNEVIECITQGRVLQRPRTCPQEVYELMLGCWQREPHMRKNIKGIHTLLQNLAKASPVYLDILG

[7] = tested on: BaF3-tel/trkA-10 nMA(G595R) cells; assay type: cell-based, murine
Method: as §3, §1, §2

[8] = Homo sapiens, KM12-TPM3/trkA_G595R, Table 8, in μM, read-out: IC50
[9] = Homo sapiens, KM12-TPM3/trkA_G667C, Table 8, in μM, read-out: IC50
[10] = Table 8, in μM, read-out: IC50 (the source's name)
[11] = Table 8, cells without unit, read-out: IC50 (the source's name)
[12] = Table 9, read-out: IC50 (the source's name)

Structure (SMILES): O=C(Nc1cnn2ccc(N3CCC[C@@H]3c3cc(F)ccc3F)nc12)N1CC[C@H](O)C1 [LOXO-101, (3S)-N-[5-[(2R)-2-(2,5-difluorophenyl)-1-pyrrolidinyl]pyrazolo[1,5-a]pyrimidin-3-yl]-3-hydroxy-1-pyrrolidinecarboxamide]
IC50 ([1]; Homo sapiens, KM12): 27 nM
IC50 [2, 8]: > 1 µM
IC50 [3, 9]: > 1 µM

Structure (SMILES): Cc1cc(Nc2ncc(Cl)c(Nc3ccccc3S(=O)(=O)C(C)C)n2)c(OC(C)C)cc1C1CCNCC1 [ceritinib, 5-chloro-2-N-(5-methyl-4-piperidin-4-yl-2-propan-2-yloxyphenyl)-4-N-(2-propan-2-ylsulfonylphenyl)pyrimidine-2,4-diamine]
IC50 ([1]; Homo sapiens, KM12): 269 nM
IC50 [2, 8]: > 1 µM
IC50 [3, 9]: > 1 µM
GI50 [4, 10]: > 1 µM
GI50 (BaF3-tel/trkA_WT cells; [10]): > 1 µM

GI50 [4, 11]: 0.433 µM
GI50 (BaF3-tel/trkA_WT cells; [11]): 0.179 µM
Structure (SMILES): C[C@@H](Oc1cc(-c2cnn(C3CCNCC3)c2)cnc1N)c1c(Cl)ccc(F)c1Cl [crizotinib, (R)-3-[1-(2,6-Dichloro-3-fluorophenyl)ethoxy]-5-[1-(piperidin-4-yl)-1H-pyrazol-4-yl]pyridin-2-amine]
IC50 ([1]; Homo sapiens, KM12): 76.6 nM
IC50 [2, 8]: > 1 µM
IC50 [3, 9]: > 1 µM

Structure (SMILES): CN1CCN(c2ccc(C(=O)Nc3n[nH]c4ccc(Cc5cc(F)cc(F)c5)cc34)c(NC3CCOCC3)c2)CC1 [entrectinib, N-[5-(3,5-difluorobenzyl)-1H-indazol-3-yl]-4-(4-methyl-piperazin-1-yl)-2-(tetrahydro-pyran-4-ylamino)-benzamide]
GI50 (BaF3-tel/trkC cells; [12]): 5.5 nM
IC50 ([1]; Homo sapiens, KM12, 72 h, KM12-DMSO-A, 3-day growth inhibition, Table 3): 1.26 nM
IC50 ([1]; Homo sapiens, KM12, 672 h, KM12-DMSO, Table 4, after about 4 weeks of increased entrectinib in Set A): 3.95 nM
IC50 ([1]; Homo sapiens, KM12, KM12-DMSO-B, Table 5): 1.14 nM
IC50 ([1]; Homo sapiens, KM12, KM12-TPM3/trkA_WT, Table 8, cells without unit): 3.4 nM
inhibitory activity against mutant cells [5]: significant inhibitory activity
IC50 (KM12-100 nM-B cells): 70.4 nM
IC50 (KM12-30 nM A cells; KM12): 6.47 nM
IC50 (KM12-30 nM A cells; KM12, 72 h): 3.41 nM
increase of IC50 value (KM12-30 nM A cells; KM12-30 nM-A treated cells versus cells cultured in DMSO and 1-10 nM entrectinib): ~2 fold
IC50 (KM12-3 nM A cells; KM12): 4.36 nM
IC50 (KM12-3 nM A cells; KM12, 72 h): 1.64 nM
IC50 (KM12-100 nM A cells): 6.62 nM
IC50 (KM12-1 nM A cells; KM12): 4.19 nM
IC50 (KM12-1 nM A cells; KM12, 72 h): 1.57 nM
IC50 (KM12-10 nM A cells; KM12): 4.65 nM
IC50 (KM12-10 nM A cells; KM12, 72 h): 1.71 nM
IC50 [6]: 85.4 nM
IC50 (KM12-30 nM-B cells): 93.8 nM
IC50 (KM12-300 nM-B cells): 209 nM
GI50 (BaF3-tel/trkB cells): 8.7 nM
IC50 ([3]; Homo sapiens, KM12): 0.367 µM
IC50 higher than that of the control parental line [7]: > 100 fold

Structure (SMILES): C[C@H]1Oc2cc(cnc2N)-c2c(nn(C)c2C#N)CN(C)C(=O)c2ccc(F)cc21 [PF06463922, (10R)-7-amino-12-fluoro-10,15,16,17-tetrahydro-2,10,16-trimethyl-15-oxo-2H-4,8-Methenopyrazolo[4,3-h][2,5,11]benzoxadiazacyclotetradecine-3-carbonitrile]
IC50 ([1]; Homo sapiens, KM12): 206 nM
IC50 ([2]; Homo sapiens, KM12): > 1 µM
IC50 ([3]; Homo sapiens, KM12): > 1 µM
GI50 ([4]; read-out: IC50, Table 8, in μM): > 1 µM
GI50 (BaF3-tel/trkA_WT cells; read-out: IC50, Table 8, cells without unit): 0.386 µM

Structure (SMILES): COC[C@@H](C)Nc1cc(N2CCN(C)CC2)ccc1C(=O)Nc1n[nH]c2ccc(S(=O)(=O)c3cc(F)cc(F)c3)cc12 [Compound 2, N-[5-(3,5-difluoro-benzenesulfonyl)-1H-indazol-3-yl]-2-((R)-2-methoxy-1-methyl-ethylamino)-4-(4-methyl-piperazin-1-yl) benzamide]
IC50 ([1]; KM12-TPM3/trkA_WT, Table 8, cells without unit): 6.1 nM
inhibitory activity against mutant cells [5]: significant inhibitory activity
IC50 ([2]; KM12-TPM3/trkA_G595R, Table 8, cells without unit, read-out: IC50): 0.424 µM
IC50 ([3]; KM12-TPM3/trkA_G667C, Table 8, cells without unit, read-out: IC50): 0.466 µM
GI50 [4, 11]: 0.846 µM
GI50 (BaF3-tel/trkA_WT cells; [11]): 0.0023 µM

Structure (SMILES): CN[C@@H]1C[C@H]2O[C@@](C)([C@@H]1OC)n1c3ccccc3c3c4c(c5c6ccccc6n2c5c31)C(=O)NC4 [Staurosporine, 9,13-Epoxy-1H,9H-diindolo[1,2,3-gh:3′,2′,1′-lm]pyrrolo[3,4-j][1,7]benzodiazonin-1-one, 2,3,10,11,12,13-hexahydro-10-methoxy-9-methyl-11-(methylamino)-, (9S,10R,11R,13R)-]
GI50 (BaF3-tel/trkB cells): 4.2 nM

Structure (SMILES): CC(C)Oc1cc(Nc2nc(N[C@@H](C)c3ccc(F)cn3)ncc2Cl)n[nH]1 [AZ-23, 5-chloro-2-N-[(1S)-1-(5-fluoropyridin-2-yl)ethyl]-4-N-(3-propan-2-yloxy-1H-pyrazol-5-yl)pyrimidine-2,4-diamine]
GI50 (BaF3-tel/trkC cells; read-out: IC50, Table 9): 2.2 nM
GI50 (BaF3-tel/trkB cells): 3.3 nM

Structure (SMILES): COC(=O)[C@@]1(O)C[C@H]2O[C@]1(C)n1c3ccccc3c3c4c(c5c6ccccc6n2c5c31)C(=O)NC4 [Compound K252a, 9,12-Epoxy-1H-diindolo[1,2,3-fg:3′,2′,1′-kl]pyrrolo[3,4-i][1,6]benzodiazocine-10-carboxylic acid, 2,3,9,10,11,12-hexahydro-10-hydroxy-9-methyl-1-oxo-, methyl ester, (9S,10R,12R)-]
GI50 (BaF3-tel/trkC cells; [12]): 14.3 nM
GI50 (BaF3-tel/trkB cells): 45.3 nM

Structure (SMILES): COc1cc(N2CCC(N3CCN(C)CC3)CC2)ccc1Nc1ncc(Cl)c(Nc2ccccc2S(=O)(=O)C(C)C)n1 [NVP-TAE684, 5-chloro-N2-[2-methoxy-4-[4-(4-methyl-1-piperazinyl)-1-piperidinyl]phenyl]-N4-[2-[(1-methylethyl)sulfonyl]phenyl]-2,4-Pyrimidinediamine]
inhibitory activity against mutant cells [5]: significant inhibitory activity

Structure (SMILES): CNC(=O)c1cc(Oc2ccc(NC(=O)Nc3cc(C(C)(C)C)nn3-c3ccc4ncccc4c3)c(F)c2)ccn1 [rebastinib, 4-[4-[(5-tert-butyl-2-quinolin-6-ylpyrazol-3-yl)carbamoylamino]-3-fluorophenoxy]-N-methylpyridine-2-carboxamide]
inhibitory activity against mutant cells [5]: significant inhibitory activity
